Experimental data as given in PMC10222987 (Viruses, 2023).
Like-named read-outs stand apart in the source and are kept apart here.

Tests used:
H1N1pdm09.WT = details: mouse, in vivo
H1N1 (rgA/WSN/33) WT [1] = details: cited from earlier work
[2] = tested on: H3N2 (rgA/Victoria/3/75) WT; details: cited from earlier work
H1N1 (rgA/WSN/33) WT [3] = details: cited from earlier work; remark: listed apart in the source
[4] = hamster, in vivo, sc
[5] = tested on: H3N2 (rgA/Victoria/3/75) WT; details: cited from earlier work; remark: listed apart in the source
[6] = BALB/c, mouse, in vivo; for C24 (plasma concentration at 24 h): sc
[7] = tested on: H1N1pdm09 (A/Osaka/129/2009) WT; test: microbe, parasite or virus in culture; type: cell-based; details: Influenza A virus, read-out: EC50 Mean

## CCOC(=O)C1=C[C@@H](OC(CC)CC)[C@H](NC(C)=O)[C@@H](N)C1 [oseltamivir phosphate]
H1N1pdm09.WT
  Lung virus titers vs vehicle: statistically lower compared with vehicle

## CCC(CC)O[C@@H]1C=C(C(=O)O)C[C@H](N)[C@H]1NC(C)=O [oseltamivir acid]
H1N1 (rgA/WSN/33) WT [1]
  IC50: 0.8 nM
[2]
  IC50: 0.13 nM

## O=C1c2c(O)c(=O)ccn2N([C@@H]2c3ccccc3SCc3c2ccc(F)c3F)[C@@H]2COCCN12 [baloxavir acid]
H1N1pdm09.WT
  Lung virus titer: almost to the LLOQ
H1N1 (rgA/WSN/33) WT [3]
  EC50: 0.42 nM
[4]; 10 mg/kg
  C24 (plasma concentration at 24 h): 17.3 ± 3.3 ng/mL
[4]; 30 mg/kg
  C24 (plasma concentration at 24 h): 45.7 ± 19.7 ng/mL
[5]
  EC50: 1.13 nM
[6]
  C24 of a simulated dose: 78.3 ng/mL
[6]; 20 mg/kg
  C24 (plasma concentration at 24 h): 47.4 ± 4.9 ng/mL
[6]; 30 mg/kg
  C24 (plasma concentration at 24 h): 70.8 ± 13.9 ng/mL
[7]
  EC50: 0.61 nM
